Laboratory results: patent publication US8338587B2, “Compounds” (AstraZeneca AB, priority 2009, dated 2012)

target: T1, recombinant human GR (Homo sapiens, UniProt P04150); assay: Human Glucocorticoid Receptor (GR) Assay (fluorescence polarization competition, Panvera/Invitrogen kit); details: GS Red Fluoromone tracer, 2 hours at room temperature, 100% control 10 μM Dexamethasone, read-out: Inhibition of GR binding, IC50
T1 construct: purchased Panvera/Invitrogen P2812 (kit P2893)
T1 sequence (P04150 1-777): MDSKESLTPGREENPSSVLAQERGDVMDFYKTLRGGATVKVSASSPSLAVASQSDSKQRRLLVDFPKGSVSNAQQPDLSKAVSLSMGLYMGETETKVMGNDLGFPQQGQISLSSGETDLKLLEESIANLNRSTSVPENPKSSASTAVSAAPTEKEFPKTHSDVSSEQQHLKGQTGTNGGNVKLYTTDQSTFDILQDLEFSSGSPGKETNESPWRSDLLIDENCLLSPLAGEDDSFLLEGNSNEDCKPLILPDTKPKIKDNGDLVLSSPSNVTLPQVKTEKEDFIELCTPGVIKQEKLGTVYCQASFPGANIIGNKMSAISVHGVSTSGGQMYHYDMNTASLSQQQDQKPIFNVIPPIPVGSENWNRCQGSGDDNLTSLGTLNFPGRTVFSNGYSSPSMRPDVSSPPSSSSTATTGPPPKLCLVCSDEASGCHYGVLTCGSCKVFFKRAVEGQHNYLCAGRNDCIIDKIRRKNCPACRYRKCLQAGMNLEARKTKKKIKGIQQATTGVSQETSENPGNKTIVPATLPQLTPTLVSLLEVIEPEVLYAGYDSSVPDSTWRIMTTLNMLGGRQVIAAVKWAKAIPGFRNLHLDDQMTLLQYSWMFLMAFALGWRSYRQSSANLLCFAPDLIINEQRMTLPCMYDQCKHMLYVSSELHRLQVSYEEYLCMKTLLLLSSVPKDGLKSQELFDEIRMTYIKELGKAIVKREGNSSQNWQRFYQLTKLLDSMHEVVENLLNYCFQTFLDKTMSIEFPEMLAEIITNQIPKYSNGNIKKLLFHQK
Protocol: Human Glucocorticoid Receptor (GR) Assay The assay is based on a commercial kit from Panvera/Invitrogen (Part number P2893). The assay technology is fluorescence polarization. The kit utilises recombinant human GR (Panvera, Part number P2812), a Fluoromone™ labelled tracer (GS Red, Panvera, Part number P2894) and a Stabilizing Peptide 10× (Panvera, Part number P2815). The GR and Stabilizing Peptide reagents are stored at −70° C. while the GS Red is stored at −20° C. Also included in the kit are 1M DTT (Panvera, Part number P2325, stored at −20° C.) and GR Screening buffer 10× (Panvera, Part number P2814, stored at −70° C. initially but once thawed stored at room temperature). Avoid repeated freeze/thaws for all reagents. The GR Screening buffer 10× comprises 100 mM potassium phosphate, 200 mM sodium molybdate, 1 mM EDTA and 20% DMSO. Test compounds (1 μL) and controls (1 μL) in 100% DMSO were added to black is polystyrene 384-well plates (Greiner low volume black flat-bottom, part number 784076). 0% control was 100% DMSO and 100% control was 10 μM Dexamethasone. Background solution (8 μL; assay buffer 10×, Stabilizing Peptide, DTT and ice cold MQ water) was added to the background wells. GS Red solution (7 μL; assay buffer 10×, Stabilizing Peptide, DTT, GS Red and ice cold water) was added to all wells except background wells. GR solution (7 μL; assay buffer 10×, Stabilizing Peptide, DTT, GR and ice cold water) was added to all wells. The plate was sealed and incubated in a dark at room temperature for 2 hours. The plate was read in an Analyst plate reader (LJL Biosystems/Molecular Devices Corporation) or other similar plate reader capable of recording fluorescence polarization (excitation wavelength 530 nm, emission wavelength 590 nm and a dichroic mirror at 561 nm).

Q: Which IC50 does the source give for `CCC(=O)O[C@]1(C(=O)SCF)[C@H](C)C[C@H]2[C@@H]3CCC4=Cc5c(cnn5-c5ccc(F)nc5)C[C@]4(C)[C@@]3(F)[C@@H](O)C[C@@]21C` [Example 2, (1R,2R,3aS,3bS,10aS,10bR,11S,12aS)-10b-Fluoro-1-{[(fluoromethyl)sulfanyl]carbonyl}-7-(6-fluoropyridin-3-yl)-11-hydroxy-2,10a,12a-trimethyl-1,2,3,3a,3b,4,5,7,10,10a,10b,11,12,12a-tetradecahydrocyclopenta[5,6]naphtho[1,2-f]indazol-1-yl propanoate] here?
A: 1.9 nM

Q: With `CCC(=O)O[C@]1(C(=O)SCC#N)[C@H](C)C[C@H]2[C@@H]3CCC4=Cc5c(cnn5-c5ccc(F)nc5)C[C@]4(C)[C@@]3(F)[C@@H](O)C[C@@]21C` [Example 3, (1R,2R,3aS,3bS,10aS,10bR,11S,12aS)-1-{[(Cyanomethyl)sulfanyl]carbonyl}-10b-fluoro-7-(6-fluoropyridin-3-yl)-11-hydroxy-2,10a,12a-trimethyl-1,2,3,3a,3b,4,5,7,10,10a,10b,11,12,12a-tetradecahydrocyclopenta[5,6]naphtho[1,2-f]indazol-1-yl propanoate] as the compound, how does the IC50 read?
A: 1.6 nM

Q: `C[C@@H]1C[C@H]2[C@@H]3CCC4=Cc5c(cnn5-c5ccc(F)nc5)C[C@]4(C)[C@@]3(F)[C@@H](O)C[C@]2(C)[C@@]1(OC(=O)c1cocn1)C(=O)SCF` [Example 4, (1R,2R,3aS,3bS,10aS,10bR,11S,12aS)-10b-Fluoro-1-{[(fluoromethyl)sulfanyl]carbonyl}-7-(6-fluoropyridin-3-yl)-11-hydroxy-2,10a,12a-trimethyl-1,2,3,3a,3b,4,5,7,10,10a,10b,11,12,12a-tetradecahydrocyclopenta[5,6]naphtho[1,2-f]indazol-1-yl 1,3-oxazole-4-carboxylate] was tested. Which IC50 did it give?
A: 2.8 nM

Q: How did the IC50 turn out when `CCC(=O)O[C@]1(C(=O)SCF)[C@H](C)C[C@H]2[C@@H]3CCC4=Cc5c(cnn5-c5ccc(F)cc5)C[C@]4(C)[C@@]3(F)[C@@H](O)C[C@@]21C` [Example 5, (1R,2R,3aS,3bS,10aS,10bR,11S,12aS)-10b-Fluoro-1-{[(fluoromethyl)sulfanyl]carbonyl}-7-(4-fluorophenyl)-11-hydroxy-2,10a,12a-trimethyl-1,2,3,3a,3b,4,5,7,10,10a,10b,11,12,12a-tetradecahydrocyclopenta[5,6]naphtho[1,2-f]indazol-1-yl propanoate] was run?
A: 11 nM

Q: For `COCC(=O)O[C@]1(C(=O)SCF)[C@H](C)C[C@H]2[C@@H]3CCC4=Cc5c(cnn5-c5ccc(F)cc5)C[C@]4(C)[C@@]3(F)[C@@H](O)C[C@@]21C` [Example 6, (1R,2R,3aS,3bS,10aS,10bR,11S,12aS)-10b-Fluoro-1-{[(fluoromethyl)sulfanyl]carbonyl}-7-(4-fluorophenyl)-11-hydroxy-2,10a,12a-trimethyl-1,2,3,3a,3b,4,5,7,10,10a,10b,11,12,12a-tetradecahydrocyclopenta[5,6]naphtho[1,2-f]indazol-1-yl methoxyacetate], which IC50 is on record?
A: 7.8 nM

Q: Which IC50 does the source give for `CCC(=O)O[C@]1(C(=O)SCF)CC[C@H]2[C@@H]3C[C@H](C)C4=Cc5c(cnn5-c5ccc(F)nc5)C[C@]4(C)[C@H]3[C@@H](O)C[C@@]21C` [Example 7, (1R,3aS,3bS,5S,10aR,10bS,11S,12aS)-1-{[(Fluoromethyl)sulfanyl]carbonyl}-7-(6-fluoropyridin-3-yl)-11-hydroxy-5,10a,12a-trimethyl-1,2,3,3a,3b,4,5,7,10,10a,10b,11,12,12a-tetradecahydrocyclopenta[5,6]naphtho[1,2-f]indazol-1-yl propanoate] here?
A: 1.9 nM

Q: How did the IC50 turn out when `COCC(=O)O[C@]1(C(=O)SCF)CC[C@H]2[C@@H]3C[C@H](C)C4=Cc5c(cnn5-c5ccc(F)nc5)C[C@]4(C)[C@H]3[C@@H](O)C[C@@]21C` [Example 8, (1R,3aS,3bS,5S,10aR,10bS,11S,12aS)-1-{[(Fluoromethyl)sulfanyl]carbonyl}-7-(6-fluoropyridin-3-yl)-11-hydroxy-5,10a,12a-trimethyl-1,2,3,3a,3b,4,5,7,10,10a,10b,11,12,12a-tetradecahydrocyclopenta[5,6]naphtho[1,2-f]indazol-1-yl methoxyacetate] was run?
A: 0.93 nM

Q: How did the IC50 turn out when `C[C@H]1C[C@@H]2[C@H]([C@@H](O)C[C@@]3(C)[C@H]2CC[C@]3(OC(=O)c2cocn2)C(=O)SCF)[C@@]2(C)Cc3cnn(-c4ccc(F)nc4)c3C=C12` [Example 9, (1R,3aS,3bS,5S,10aR,10bS,11S,12aS)-1-{[(Fluoromethyl)sulfanyl]carbonyl}-7-(6-fluoropyridin-3-yl)-11-hydroxy-5,10a,12a-trimethyl-1,2,3,3a,3b,4,5,7,10,10a,10b,11,12,12a-tetradecahydrocyclopenta[5,6]naphtho[1,2-f]indazol-1-yl 1,3-oxazole-4-carboxylate] was run?
A: 1.5 nM

Q: With `C[C@H]1C[C@@H]2[C@H]([C@@H](O)C[C@@]3(C)[C@H]2CC[C@]3(OC(=O)c2cocn2)C(=O)SCC#N)[C@@]2(C)Cc3cnn(-c4ccc(F)nc4)c3C=C12` [Example 10, (1R,3aS,3bS,5S,10aR,10bS,11S,12aS)-1-{[(Cyanomethyl)sulfanyl]carbonyl}-7-(6-fluoropyridin-3-yl)-11-hydroxy-5,10a,12a-trimethyl-1,2,3,3a,3b,4,5,7,10,10a,10b,11,12,12a-tetradecahydrocyclopenta[5,6]naphtho[1,2-f]indazol-1-yl 1,3-oxazole-4-carboxylate] as the compound, how does the IC50 read?
A: 0.89 nM

Q: With `C[C@H]1C[C@@H]2[C@H]([C@@H](O)C[C@@]3(C)[C@H]2CC[C@]3(OC(=O)C2CC2)C(=O)SCC#N)[C@@]2(C)Cc3cnn(-c4ccc(F)nc4)c3C=C12` [Example 11, (1R,3aS,3bS,5S,10aR,10bS,11S,12aS)-1-{[(Cyanomethyl)sulfanyl]carbonyl}-7-(6-fluoropyridin-3-yl)-11-hydroxy-5,10a,12a-trimethyl-1,2,3,3a,3b,4,5,7,10,10a,10b,11,12,12a-tetradecahydrocyclopenta[5,6]naphtho[1,2-f]indazol-1-yl cyclopropanecarboxylate] as the compound, how does the IC50 read?
A: 2.1 nM

Q: `C[C@]12Cc3cnn(-c4ccc(F)nc4)c3C=C1CC[C@H]1[C@@H]3CC[C@](OC(=O)[C@H]4CCCO4)(C(=O)SCC#N)[C@@]3(C)C[C@H](O)[C@@]12F` [Example 12, (1R,3aS,3bS,10aS,10bR,11S,12aS)-1-{[(Cyanomethyl)sulfanyl]carbonyl}-10b-fluoro-7-(6-fluoropyridin-3-yl)-11-hydroxy-10a,12a-dimethyl-1,2,3,3a,3b,4,5,7,10, 10a,10b,11,12,12a-tetradecahydrocyclopenta[5,6]naphtho[1,2-f]indazol-1-yl (2R)-tetrahydrofuran-2-carboxylate] was tested. Which IC50 did it give?
A: 1 nM

Q: `C[C@]12Cc3cnn(-c4ccc(F)nc4)c3C=C1CC[C@H]1[C@@H]3CC[C@](OC(=O)[C@H]4CCCO4)(C(=O)SCF)[C@@]3(C)C[C@H](O)[C@@]12F` [Example 13, (1R,3aS,3bS,10aS,10bR,11S,12aS)-10b-Fluoro-1-{[(fluoromethyl)sulfanyl]carbonyl}-7-(6-fluoropyridin-3-yl)-11-hydroxy-10a,12a-dimethyl-1,2,3,3a,3b,4,5,7,10,10a,10b,11,12,12a-tetradecahydrocyclopenta[5,6]naphtho[1,2-f]indazol-1-yl (2R)-tetrahydrofuran-2-carboxylate] was tested. Which IC50 did it give?
A: 0.98 nM
